# Results: patent US20160216351A1, “METHOD FOR DETECTING OXIDATION/REDUCTION REACTION IN VIVO” (KYUSHU UNIVERSITY, NATIONAL UNIVERSITY CORPORATION, priority 2013, published 2016)
# How the values were obtained:
# C57BL6 mice = test: Metabolic imaging in mice using sequential ReMI; assay type: in vivo
# Description: Female C57BL6 mice (5 weeks old) were purchased from Japan SLC, Inc. (Hamamatsu, Japan) and acclimated for one week before the experiment. Mice were 6 to 8 weeks old at the time of the experiment (body weight: 20-30 g), and five mice were kept in each cage in a room that was adjusted to a 24-hour cycle rhythm, wherein the temperature and moisture of the room were also adjusted. Food and water were given ad libitum. All the procedures and animal care were approved by the Animal Experiment Ethics Committee of Kyushu University and carried out in accordance with guidelines for animal experiments established by Kyushu University.
# Mice were anesthetized with 2% isoflurane in the FADH experiment or with urethane (2 g/kg) in the CoQ0H experiment and immobilized with a skin adhesive tape, wherein the stomach was placed to the lower side. During the experiment, the temperature of mice was kept at 37+/−1° C. with a warm current of air. Subsequently, mice were placed in a resonator and ReMI measurement was started. ReMI images of the lower abdominal region were examined after administering an 8 mM CoQ0 alkaline solution (800 μL) to the rectum or administering an FAD/NADH solution intramuscularly.
# ReMI images were obtained by using a DNP-MRI system manufactured at Kyushu University in an experiment using FADH and a Philips prototype system in an experiment using CoQ0. The ReMI experiment was conducted using the abovementioned parameters. Radical metabolic images (redox maps) were obtained by calculating changes in ReMI intensity in each pixel among the first four ReMI images (from a semi-logarithmic plot line of each pixel on sequential images).
# [1] = system: mitochondria collected from a rat; test: ReMI metabolic imaging in the presence of mitochondria (phantom tubes); assay type: in vitro ADME; settings: mitochondria fractions of various concentrations
# Description: The ReMI experiment was conducted by using a DNP-MRI system manufactured at Kyushu University. The DNP-MRI system was constituted by using an external magnet for an EPR device (JES-ES20, JEOL Ltd.) and two axis field gradient coils for CW-EPR imaging. A resonator was constituted of a surface coil for ESR irradiation, an NMR cross coil within a saddle, and a solenoid for transmission and signal reception. An ESR irradiation coil was disposed between two NMR coils. […] A surface coil (diameter: 20 mm) was used for ESR irradiation, and an NMR coil assembly was constituted of an NMR transmission saddle coil (90 mm i.d., 175 mm in length) and a solenoid reception coil (40 mm i.d., 60 mm in length) having a bandwidth of 1 kHz. The maximum transmission power was 100 W. The ReMI experiment was conducted by a spin echo method. The ReMI experiment was conducted under the following conditions: EPR irradiation power, 12 W; flip angle, 90 degrees; TEPR×repetition time (TR)×echo time (TE)=500×1000×40 ms; average number=1; slice thickness, 30 mm; and a 64-phase modulation step. For the image field (32×32 mm), 64×64 matrix was used.
# To a phantom tube filled with mitochondria collected from a rat was added FADH or CoQ0H in an experiment. […] The metabolic rates (decreasing rates) of FADH and CoQ0H were calculated from changes in the first four image intensities after the reaction with mitochondria.
substance,measurement,setting,value
FADH,distribution in fusion images of MRI and ReMI,"C57BL6 mice; FADH intramuscular, CoQ0H rectal",site-specifically distributed in the legs
same,pharmacokinetic map (decreasing rate),C57BL6 mice; calculated from first four ReMI images,constant
same,metabolism in the muscle by ReMI scanning,C57BL6 mice; intramuscular administration,metabolized slowly
same,ReMI image intensity during the test period,"C57BL6 mice; intramuscular administration in both legs, imaging every two minutes, 14 minutes",stable
same,redox map (intensity declining speed),[1]; calculated from first four image intensities,no change
same,change in ReMI image intensity over time after reaction with mitochondria,"[1]; images every two minutes, EPR irradiation 572.5 MHz",no reaction with mitochondria
